Laboratory results from the kinase profiling compilation of Christmann-Franck et al. (2016).

How the values were obtained:
Assay in all cases: radiometric filter-binding kinase assay, Kinase HotSpot
Conditions in all cases: compound 0.5 µM; ATP 10 µM
[1] = target: HIPK1 (human) (UniProt Q86Z02)
[2] = target: DCLK2 (human) (UniProt Q8N568)
[3] = target: GRK6 (human) (UniProt P43250)
[4] = target: PNCK (human) (UniProt Q6P2M8)
[5] = target: MARK1 (human) (UniProt Q9P0L2)
[6] = target: DYRK1B (human) (UniProt Q9Y463)
[7] = target: FGR (human) (UniProt P09769)
[8] = target: AKT1 (human) (UniProt P31749)
[9] = target: STK3 (human) (UniProt Q13188)
[10] = target: IRAK1 (human) (UniProt P51617)
[11] = target: SRPK3 (human) (UniProt Q9UPE1)
[12] = target: CSNK2A1 (human) (UniProt P68400)
[13] = target: ABL1 (human) (UniProt P00519)
[14] = target: JAK1 JH1 catalytic (human) (UniProt P23458)
[15] = target: JAK2 JH1 JH2 (human) (UniProt O60674)
[16] = target: CDC42BPA (human) (UniProt Q5VT25)
[17] = target: SRMS (human) (UniProt Q9H3Y6)
[18] = target: CHUK (human) (UniProt O15111)
[19] = target: CDK6 CCND3 (human) (UniProt P30281+Q00534)
[20] = target: SLK (human) (UniProt Q9H2G2)
[21] = target: SYK (human) (UniProt P43405)
[22] = target: PRKX (human) (UniProt P51817)
[23] = target: PKN1 (human) (UniProt Q16512)
[24] = target: MAP4K2 (human) (UniProt Q12851)
[25] = target: PRKCI (human) (UniProt P41743)
[26] = target: EGFR (human) (UniProt P00533)
[27] = target: PDGFRA (human) (UniProt P16234)
[28] = target: LTK (human) (UniProt P29376)
[29] = target: WNK2 (human) (UniProt Q9Y3S1)
[30] = target: RET (human) (UniProt P07949)
[31] = target: DYRK2 (human) (UniProt Q92630)
[32] = target: CSNK1G2 (human) (UniProt P78368)
[33] = target: STK38 (human) (UniProt Q15208)
[34] = target: PDPK1 (human) (UniProt O15530)
[35] = target: CDK9 CCNK (human) (UniProt O75909+P50750)
[36] = target: MST4 (human) (UniProt Q9P289)
[37] = target: EPHA1 (human) (UniProt P21709)
[38] = target: CSK (human) (UniProt P41240)
[39] = target: ACVRL1 (human) (UniProt P37023)
[40] = target: PRKCZ (human) (UniProt Q05513)
[41] = target: PTK2B (human) (UniProt Q14289)
[42] = target: AURKC (human) (UniProt Q9UQB9)

STK3 (human), sequence (Q13188 whole entry, looked up): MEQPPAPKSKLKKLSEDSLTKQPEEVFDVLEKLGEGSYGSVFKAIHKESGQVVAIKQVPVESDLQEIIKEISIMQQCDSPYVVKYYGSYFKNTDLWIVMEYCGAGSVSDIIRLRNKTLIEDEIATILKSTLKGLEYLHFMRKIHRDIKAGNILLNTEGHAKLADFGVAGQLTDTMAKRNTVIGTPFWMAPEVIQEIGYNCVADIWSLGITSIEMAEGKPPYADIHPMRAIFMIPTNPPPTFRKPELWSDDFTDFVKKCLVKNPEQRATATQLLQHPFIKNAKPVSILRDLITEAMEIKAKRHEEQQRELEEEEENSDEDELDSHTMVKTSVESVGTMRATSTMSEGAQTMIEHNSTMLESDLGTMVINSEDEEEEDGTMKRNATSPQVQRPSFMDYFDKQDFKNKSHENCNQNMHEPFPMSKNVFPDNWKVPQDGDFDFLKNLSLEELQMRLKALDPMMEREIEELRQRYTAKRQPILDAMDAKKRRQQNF
DCLK2 (human), sequence (Q8N568 whole entry, looked up): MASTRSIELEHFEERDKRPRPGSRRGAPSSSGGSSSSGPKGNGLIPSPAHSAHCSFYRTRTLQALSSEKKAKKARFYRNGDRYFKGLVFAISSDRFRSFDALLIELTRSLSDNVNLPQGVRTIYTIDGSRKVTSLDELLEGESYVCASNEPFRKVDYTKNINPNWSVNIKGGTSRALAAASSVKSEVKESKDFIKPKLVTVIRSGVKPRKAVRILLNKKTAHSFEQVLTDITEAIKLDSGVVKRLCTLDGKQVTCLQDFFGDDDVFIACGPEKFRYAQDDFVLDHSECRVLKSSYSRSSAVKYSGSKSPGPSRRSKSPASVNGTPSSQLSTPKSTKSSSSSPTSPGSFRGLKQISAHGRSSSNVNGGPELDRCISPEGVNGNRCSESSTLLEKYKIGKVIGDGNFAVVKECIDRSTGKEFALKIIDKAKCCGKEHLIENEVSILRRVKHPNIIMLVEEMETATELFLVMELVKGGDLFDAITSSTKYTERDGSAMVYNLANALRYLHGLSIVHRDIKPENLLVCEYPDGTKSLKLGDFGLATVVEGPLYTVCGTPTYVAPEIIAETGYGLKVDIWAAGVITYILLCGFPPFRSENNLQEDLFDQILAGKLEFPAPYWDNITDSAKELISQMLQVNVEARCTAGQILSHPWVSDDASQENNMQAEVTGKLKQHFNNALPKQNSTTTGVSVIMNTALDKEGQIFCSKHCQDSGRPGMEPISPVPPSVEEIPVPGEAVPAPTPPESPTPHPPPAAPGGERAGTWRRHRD
WNK2 (human), sequence (Q9Y3S1 whole entry, looked up): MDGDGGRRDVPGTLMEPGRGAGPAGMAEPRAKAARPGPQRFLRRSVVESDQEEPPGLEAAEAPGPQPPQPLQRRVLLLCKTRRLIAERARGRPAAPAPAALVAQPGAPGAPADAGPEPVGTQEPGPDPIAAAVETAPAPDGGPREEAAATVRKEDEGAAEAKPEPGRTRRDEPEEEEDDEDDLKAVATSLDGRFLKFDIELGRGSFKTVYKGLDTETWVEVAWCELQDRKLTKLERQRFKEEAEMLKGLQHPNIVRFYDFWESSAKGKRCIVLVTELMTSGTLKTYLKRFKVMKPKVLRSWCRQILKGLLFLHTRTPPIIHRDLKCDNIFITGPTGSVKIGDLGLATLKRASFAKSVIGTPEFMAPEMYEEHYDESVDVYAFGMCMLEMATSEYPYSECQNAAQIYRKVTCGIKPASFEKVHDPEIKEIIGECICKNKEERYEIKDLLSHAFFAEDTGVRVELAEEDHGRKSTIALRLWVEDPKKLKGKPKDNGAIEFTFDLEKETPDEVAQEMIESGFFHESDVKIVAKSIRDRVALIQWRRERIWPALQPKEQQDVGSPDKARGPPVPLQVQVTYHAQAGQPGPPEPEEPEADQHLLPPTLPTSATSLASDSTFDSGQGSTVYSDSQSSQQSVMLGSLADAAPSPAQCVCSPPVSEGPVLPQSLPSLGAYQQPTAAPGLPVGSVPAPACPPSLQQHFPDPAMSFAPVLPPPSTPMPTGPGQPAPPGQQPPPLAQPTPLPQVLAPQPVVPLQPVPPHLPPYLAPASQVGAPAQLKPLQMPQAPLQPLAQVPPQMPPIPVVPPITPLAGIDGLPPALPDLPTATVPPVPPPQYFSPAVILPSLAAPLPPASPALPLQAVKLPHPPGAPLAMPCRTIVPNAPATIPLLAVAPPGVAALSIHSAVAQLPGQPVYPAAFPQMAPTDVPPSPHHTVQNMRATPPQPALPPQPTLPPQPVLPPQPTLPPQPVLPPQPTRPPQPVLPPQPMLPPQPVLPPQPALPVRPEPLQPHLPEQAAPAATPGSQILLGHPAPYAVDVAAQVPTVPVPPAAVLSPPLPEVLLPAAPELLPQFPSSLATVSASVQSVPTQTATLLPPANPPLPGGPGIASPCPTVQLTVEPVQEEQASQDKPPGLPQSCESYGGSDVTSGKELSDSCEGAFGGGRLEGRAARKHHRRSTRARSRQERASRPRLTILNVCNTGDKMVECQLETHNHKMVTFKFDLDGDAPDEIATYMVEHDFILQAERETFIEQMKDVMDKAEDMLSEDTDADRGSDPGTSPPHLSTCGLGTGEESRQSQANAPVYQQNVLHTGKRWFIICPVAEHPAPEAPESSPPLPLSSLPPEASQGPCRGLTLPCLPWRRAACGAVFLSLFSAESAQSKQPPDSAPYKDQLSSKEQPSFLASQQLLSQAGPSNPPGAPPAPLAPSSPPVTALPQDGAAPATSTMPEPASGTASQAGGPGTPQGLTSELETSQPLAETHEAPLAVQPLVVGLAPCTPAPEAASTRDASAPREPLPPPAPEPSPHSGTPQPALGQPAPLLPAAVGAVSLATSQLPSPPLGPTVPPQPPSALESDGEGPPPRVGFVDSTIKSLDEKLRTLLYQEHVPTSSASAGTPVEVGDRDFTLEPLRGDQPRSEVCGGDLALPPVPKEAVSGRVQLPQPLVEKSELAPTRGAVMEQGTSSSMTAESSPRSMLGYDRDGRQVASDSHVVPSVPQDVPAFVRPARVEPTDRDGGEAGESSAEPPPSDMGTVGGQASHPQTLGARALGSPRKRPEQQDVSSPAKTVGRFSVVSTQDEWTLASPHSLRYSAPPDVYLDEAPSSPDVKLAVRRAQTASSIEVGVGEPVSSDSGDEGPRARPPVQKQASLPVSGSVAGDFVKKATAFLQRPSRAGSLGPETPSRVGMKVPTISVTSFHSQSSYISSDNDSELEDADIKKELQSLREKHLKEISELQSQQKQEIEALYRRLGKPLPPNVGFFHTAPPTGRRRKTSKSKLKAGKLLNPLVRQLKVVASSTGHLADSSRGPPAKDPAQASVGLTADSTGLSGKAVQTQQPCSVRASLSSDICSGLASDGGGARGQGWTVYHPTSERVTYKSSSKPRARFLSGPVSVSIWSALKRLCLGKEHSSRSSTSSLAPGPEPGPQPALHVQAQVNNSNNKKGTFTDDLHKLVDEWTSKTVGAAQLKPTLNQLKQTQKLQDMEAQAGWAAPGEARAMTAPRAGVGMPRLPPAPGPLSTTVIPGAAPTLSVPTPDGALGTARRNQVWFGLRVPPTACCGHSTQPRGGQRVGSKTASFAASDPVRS
HIPK1 (human), sequence (Q86Z02 whole entry, looked up): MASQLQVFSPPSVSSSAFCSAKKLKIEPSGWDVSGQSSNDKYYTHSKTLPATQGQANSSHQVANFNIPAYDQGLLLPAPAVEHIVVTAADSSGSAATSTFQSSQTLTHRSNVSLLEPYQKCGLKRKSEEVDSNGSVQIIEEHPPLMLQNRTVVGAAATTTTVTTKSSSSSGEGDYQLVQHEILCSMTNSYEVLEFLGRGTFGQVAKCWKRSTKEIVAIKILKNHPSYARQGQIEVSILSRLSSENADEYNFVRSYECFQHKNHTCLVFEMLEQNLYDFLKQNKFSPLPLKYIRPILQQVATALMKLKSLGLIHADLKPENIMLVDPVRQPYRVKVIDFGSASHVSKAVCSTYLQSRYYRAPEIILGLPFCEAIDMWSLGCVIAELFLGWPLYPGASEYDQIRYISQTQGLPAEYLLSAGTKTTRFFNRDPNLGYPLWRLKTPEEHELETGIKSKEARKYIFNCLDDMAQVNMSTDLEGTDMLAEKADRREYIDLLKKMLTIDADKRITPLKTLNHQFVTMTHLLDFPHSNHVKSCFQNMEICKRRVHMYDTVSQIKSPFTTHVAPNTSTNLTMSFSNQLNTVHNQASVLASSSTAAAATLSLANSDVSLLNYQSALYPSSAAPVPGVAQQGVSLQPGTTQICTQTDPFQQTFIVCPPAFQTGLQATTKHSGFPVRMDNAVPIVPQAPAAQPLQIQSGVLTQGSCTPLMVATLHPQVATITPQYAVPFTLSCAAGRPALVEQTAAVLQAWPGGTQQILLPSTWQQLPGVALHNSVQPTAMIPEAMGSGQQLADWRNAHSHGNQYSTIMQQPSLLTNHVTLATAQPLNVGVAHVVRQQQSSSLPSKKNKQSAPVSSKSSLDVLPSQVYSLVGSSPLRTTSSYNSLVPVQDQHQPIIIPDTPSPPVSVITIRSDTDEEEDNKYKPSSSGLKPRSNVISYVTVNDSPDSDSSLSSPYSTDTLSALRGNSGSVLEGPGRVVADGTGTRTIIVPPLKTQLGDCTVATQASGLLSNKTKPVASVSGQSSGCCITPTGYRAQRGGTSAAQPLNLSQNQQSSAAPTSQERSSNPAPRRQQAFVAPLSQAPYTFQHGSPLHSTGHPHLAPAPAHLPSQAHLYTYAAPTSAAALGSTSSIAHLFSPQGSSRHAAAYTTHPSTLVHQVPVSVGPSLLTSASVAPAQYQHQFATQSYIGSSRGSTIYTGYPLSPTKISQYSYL
PNCK (human), sequence (Q6P2M8 whole entry, looked up): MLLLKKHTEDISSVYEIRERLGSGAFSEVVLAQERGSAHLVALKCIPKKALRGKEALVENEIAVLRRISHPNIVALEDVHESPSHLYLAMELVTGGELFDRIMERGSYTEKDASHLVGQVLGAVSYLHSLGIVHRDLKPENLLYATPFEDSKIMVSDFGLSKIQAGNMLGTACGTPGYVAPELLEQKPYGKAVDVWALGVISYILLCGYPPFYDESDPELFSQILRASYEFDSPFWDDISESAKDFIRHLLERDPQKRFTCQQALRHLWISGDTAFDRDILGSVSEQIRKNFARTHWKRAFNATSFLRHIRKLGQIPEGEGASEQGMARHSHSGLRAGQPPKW

In the case of Nc1ccc2ncnc(NCCc3ccc(Oc4ccccc4)cc3)c2c1, the residual activity [1] is reported as 104%, the residual activity [2] is reported as 99.1% and the residual activity [3] is reported as 99.3%. For the same molecule, the residual activity [4] was 98.5%, the residual activity [5] was 103% and the residual activity [6] was 104%. It also gave a residual activity [7] of 101%, a residual activity [8] of 98.2% and a residual activity [9] of 105%. For the same molecule, the residual activity [10] was 107%, the residual activity [11] was 96.6% and the residual activity [12] was 95.2%. For the same molecule, the residual activity [13] was 89.7%, the residual activity [14] was 94.6% and the residual activity [15] was 103%. It also gave a residual activity [16] of 102%, a residual activity [17] of 99.2% and a residual activity [18] of 101%. The residual activity [19] was 100%, the residual activity [20] was 102% and the residual activity [21] was 102%. The residual activity [22] was 104%, the residual activity [23] was 105% and the residual activity [24] was 100%. For the same molecule, the residual activity [25] was 103%, the residual activity [26] was 112% and the residual activity [27] was 98.5%. It also gave a residual activity [28] of 106%, a residual activity [29] of 96.7% and a residual activity [30] of 101%. For the same molecule, the residual activity [31] was 89.6%, the residual activity [32] was 100% and the residual activity [33] was 97.9%. The residual activity [34] was 105%, the residual activity [35] was 104% and the residual activity [36] was 94.4%. For the same molecule, the residual activity [37] was 86.6%, the residual activity [38] was 96.7% and the residual activity [39] was 93.5%. It also gave a residual activity [40] of 96%, a residual activity [41] of 95% and a residual activity [42] of 96%.
O=C1NC(=O)c2c1c1c3ccccc3n3c1c1c2c2ccccc2n1C1CCC3O1 showed a residual activity [1] of 93.6%, a residual activity [2] of 89.6% and a residual activity [3] of 55.6%. It also gave a residual activity [4] of 50.5%, a residual activity [5] of 10.4% and a residual activity [6] of 3.15%. The residual activity [7] was 30.9%, the residual activity [8] was 63.9% and the residual activity [9] was 3.22%. The residual activity [10] was 37.5%, the residual activity [11] was 63.6% and the residual activity [12] was 16.7%. For the same molecule, the residual activity [13] was 72.7%, the residual activity [14] was 22.2% and the residual activity [15] was 14.2%. For the same molecule, the residual activity [16] was 84%, the residual activity [17] was 105% and the residual activity [18] was 106%. The residual activity [19] was 19.9%, the residual activity [20] was 26% and the residual activity [21] was 15.8%. The residual activity [22] was 17.5%, the residual activity [23] was 2.68% and the residual activity [24] was 3.75%. The residual activity [25] was 86.4%, the residual activity [26] was 78.3% and the residual activity [27] was 32.8%. It also gave a residual activity [28] of 21.8%, a residual activity [29] of 93.6% and a residual activity [30] of 3.21%. It also gave a residual activity [31] of 5.94%, a residual activity [32] of 81.8% and a residual activity [33] of 46.2%. For the same molecule, the residual activity [34] was 10.6%, the residual activity [35] was 15.8% and the residual activity [36] was 20.5%. It also gave a residual activity [37] of 90.1%, a residual activity [38] of 79.7% and a residual activity [39] of 78.6%. The residual activity [40] was 87.4%, the residual activity [41] was 41.5% and the residual activity [42] was 36.5%.
CO[C@H]1CC2CC[C@@H](C)[C@@](O)(O2)C(=O)C(=O)N2CCCC[C@H]2C(=O)OC([C@H](C)C[C@@H]2CC[C@@H](O)[C@H](OC)C2)CC(=O)[C@H](C)/C=C(\C)[C@@H](O)[C@@H](OC)C(=O)[C@H](C)C[C@H](C)/C=C/C=C/C=C/1C (stereo partly drawn) showed a residual activity [1] of 99.1%, a residual activity [2] of 99.2% and a residual activity [3] of 103%. The residual activity [4] was 95.4%, the residual activity [5] was 98.8% and the residual activity [6] was 108%. For the same molecule, the residual activity [7] was 94.5%, the residual activity [8] was 104% and the residual activity [9] was 105%. The residual activity [10] was 118%, the residual activity [11] was 97.2% and the residual activity [12] was 94.7%. The residual activity [13] was 103%, the residual activity [14] was 103% and the residual activity [15] was 97.5%. It also gave a residual activity [16] of 95.6%, a residual activity [17] of 108% and a residual activity [18] of 110%. The residual activity [19] was 105%, the residual activity [20] was 98.7% and the residual activity [21] was 97.1%. For the same molecule, the residual activity [22] was 95.6%, the residual activity [23] was 96.2% and the residual activity [24] was 111%. For the same molecule, the residual activity [25] was 99.1%, the residual activity [26] was 93.3% and the residual activity [27] was 95.1%. The residual activity [28] was 107%, the residual activity [29] was 103% and the residual activity [30] was 98.7%. The residual activity [31] was 100%, the residual activity [32] was 94.8% and the residual activity [33] was 92.8%. The residual activity [34] was 92.6%, the residual activity [35] was 106% and the residual activity [36] was 113%. It also gave a residual activity [37] of 99.5%, a residual activity [38] of 101% and a residual activity [39] of 97.9%. It also gave a residual activity [40] of 105%, a residual activity [41] of 94.2% and a residual activity [42] of 95.6%.
With Oc1cccc(-c2nc(N3CCOCC3)c3oc4ncccc4c3n2)c1 the residual activity [1] was 101%, the residual activity [2] was 102% and the residual activity [3] was 98.2%. It also gave a residual activity [4] of 96.7%, a residual activity [5] of 97.6% and a residual activity [6] of 98.9%. For the same molecule, the residual activity [7] was 94.8%, the residual activity [8] was 95.3% and the residual activity [9] was 105%. The residual activity [10] was 84.2%, the residual activity [11] was 95% and the residual activity [12] was 94.7%. It also gave a residual activity [13] of 94.4%, a residual activity [14] of 104% and a residual activity [15] of 92.6%. The residual activity [16] was 94.5%, the residual activity [17] was 96.2% and the residual activity [18] was 94.8%. It also gave a residual activity [19] of 89.7%, a residual activity [20] of 101% and a residual activity [21] of 94.2%. It also gave a residual activity [22] of 96.2%, a residual activity [23] of 101% and a residual activity [24] of 93%. For the same molecule, the residual activity [25] was 94.9%, the residual activity [26] was 83.8% and the residual activity [27] was 99.4%. The residual activity [28] was 97.6%, the residual activity [29] was 119% and the residual activity [30] was 99.8%. For the same molecule, the residual activity [31] was 97.6%, the residual activity [32] was 88.1% and the residual activity [33] was 99%. For the same molecule, the residual activity [34] was 103%, the residual activity [35] was 96% and the residual activity [36] was 98.6%. For the same molecule, the residual activity [37] was 87.8%, the residual activity [38] was 88.3% and the residual activity [39] was 105%. It also gave a residual activity [40] of 99.1%, a residual activity [41] of 103% and a residual activity [42] of 98.1%.
